Data on eight compounds can be found in PubChem BioAssay (NCI).

Experiment in all cases: inhibition of tumour cell growth, NCI panel, 48 h
Experiment [1] deals with 786-0 renal.
Experiment [2] has as its system CCRF-CEM leukemia.
The subject of experiment [3] is COLO 205 colon.
The test system of experiment [4] is HL-60(TB) leukemia.
The test system of experiment [5] is K-562 leukemia.
Experiment [6] deals with MCF7 breast.
Experiment [7] deals with MOLT-4 leukemia.
The subject of experiment [8] is NCI-H226 lung.
The test system of experiment [9] is NCI-H460 lung.
The subject of experiment [10] is NCI/ADR-RES ovarian.
Experiment [11] relates to OVCAR-3 ovarian.
In experiment [12] the test system is OVCAR-5 ovarian.
Experiment [13] has as its system SF-268 CNS.
The subject of experiment [14] is SK-OV-3 ovarian.
Experiment [15] deals with SR leukemia.
Experiment [16] has as its system SW-620 colon.
In experiment [17] the test system is T-47D breast.
In experiment [18] the test system is UACC-62 melanoma.
The subject of experiment [19] is IGROV1 ovarian.
Experiment [20] deals with RPMI-8226 leukemia.

Structures are written as SMILES.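 Cultured in 96-well plates, cells were exposed to test compound for 48 hours across five concentrations. TGI denotes the concentration required for complete inhibition of growth.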

Consider `Clc1ncnc2c1nc(C#Cc1ccccc1)n2Cc1ccccc1`, for which the TGI is more than 100 µM in experiment [1]; more than 100 µM in experiment [2]; 45.8 µM in experiment [3]; more than 100 µM in [4]; more than 100 µM in experiment [5]; more than 100 µM in experiment [6]. Further, the TGI in experiment [7] was more than 100 µM; in experiment [8], more than 100 µM; in experiment [9] it was more than 100 µM; in experiment [10], more than 100 µM; in experiment [11] it was 21.6 µM; in [12] it was more than 100 µM. Besides, the TGI in experiment [13], in experiment [14], in experiment [15], in experiment [16], in experiment [17] and in experiment [18] was more than 100 µM each time.

As to `Cc1ccc(C(=O)C#Cc2cn(C3CC(O)C(CO)O3)c(=O)[nH]c2=O)cc1` (centres undefined), the TGI in [1], in [3], in experiment [19], in experiment [6], in experiment [8] and in experiment [9] was more than 100 µM each time. For the same compound, the TGI in experiment [10] was more than 100 µM; in experiment [11], 60 µM; in experiment [20], more than 100 µM; in experiment [13] it was more than 100 µM; in [14] it was more than 100 µM; in experiment [15], more than 100 µM. Besides, the TGI is 89.2 µM in experiment [16], 45 µM in experiment [17] and more than 100 µM in experiment [18].

`O=C1C(N=Nc2ccc(-c3nc4ccccc4o3)cc2)NC(=S)N1c1ccccc1` (centres undefined): the TGI in [1] was more than 100 µM; in [2], 0.679 µM; in experiment [3], more than 100 µM; in experiment [4], 0.742 µM; in [19], more than 100 µM; in experiment [5], more than 100 µM. Moreover, the TGI in experiment [6] was more than 100 µM; in experiment [7], more than 100 µM; in experiment [8], more than 100 µM; in experiment [9], more than 100 µM; in [10] it was more than 100 µM; in experiment [11] it was 64.3 µM. Besides, the TGI was more than 100 µM in experiment [12]; more than 100 µM in experiment [13]; more than 100 µM in experiment [14]; 85.6 µM in experiment [15]; more than 100 µM in experiment [16]; more than 100 µM in [17]. For the same compound, in [18], the TGI was more than 100 µM.

With `O=C1N[C@@H]([C@H](CCCCCO)OC(=O)c2ccccc2)CO1`, the TGI in [1], in experiment [2], in experiment [4], in experiment [19], in experiment [5] and in experiment [6] was more than 100 µM in each case. Besides, the TGI in experiment [7], in experiment [8], in [9], in experiment [10], in experiment [11] and in experiment [12] was more than 100 µM each time. The TGI in experiment [20], in experiment [14], in experiment [15], in experiment [16], in experiment [17] and in [18] was more than 100 µM each time.

Regarding `O=C(CC(C(=O)c1cccs1)c1ccsc1)c1ccsc1` (centres undefined), the TGI is more than 100 µM in experiment [1]; more than 100 µM in experiment [2]; 53.5 µM in experiment [3]; more than 100 µM in [4]; more than 100 µM in [19]; more than 100 µM in experiment [5]. The TGI in experiment [6] is more than 100 µM; in [7], more than 100 µM; in [9] it was more than 100 µM; in experiment [10], 63.6 µM; in experiment [11] it was more than 100 µM; in experiment [12], more than 100 µM. In addition, the TGI in [20], in experiment [13], in experiment [14], in experiment [15], in [16] and in experiment [17] was more than 100 µM throughout. In experiment [18], this compound came in with a TGI of more than 100 µM.

As to `COc1cc2c(c(OC)c1OC)C(=O)[C@H]1OC(=O)N[C@@H]21`, the TGI in [1], in [2], in [3], in [4], in experiment [5] and in [6] was more than 100 µM each time. The TGI in experiment [7], in [8], in experiment [10], in experiment [11], in [12] and in experiment [20] was more than 100 µM in each case. The TGI in experiment [13], in [14], in experiment [15], in experiment [16], in experiment [17] and in experiment [18] was more than 100 µM in each case.

`Cc1cc(C2(c3cc(C)c(O)c(C(=O)O)c3)OS(=O)(=O)c3ccccc32)cc(C(=O)O)c1O`: the TGI in experiment [1], in experiment [3], in experiment [4], in [19], in experiment [5] and in [6] was more than 100 µM each time. Further, the TGI in [7], in experiment [8], in [9], in experiment [10], in [11] and in experiment [12] was more than 100 µM in each case. Besides, the TGI in experiment [20], in experiment [13], in experiment [14], in experiment [15], in experiment [16] and in experiment [17] was more than 100 µM each time. Further, the TGI in experiment [18] is more than 100 µM.

As to `O=C1CC(CC(OCc2ccccc2)C(COCc2ccccc2)OCc2ccccc2)CC(=O)N1` (centres undefined), the TGI in experiment [1] is more than 100 µM; in experiment [2], more than 100 µM; in [3], 39.6 µM; in [4], more than 100 µM; in [19], more than 100 µM; in experiment [5], more than 100 µM. For the same compound, the TGI is more than 100 µM in [6]; 74.8 µM in experiment [7]; more than 100 µM in experiment [8]; more than 100 µM in experiment [9]; 97.9 µM in experiment [10]; more than 100 µM in [11]. In addition, the TGI in experiment [12] was more than 100 µM; in [20], more than 100 µM; in experiment [13] it was more than 100 µM; in experiment [15], more than 100 µM; in experiment [16], more than 100 µM; in [17] it was 94.5 µM.
